Reference: publication PMC7294232, “Synthesis and biological evaluation of novel quinoline-piperidine scaffolds as antiplasmodium agents” (European Journal of Medicinal Chemistry, 2020)
Like-named read-outs stand apart in the source and are kept apart here.

Columns and labels:
[1] = tested on: Chinese hamster ovarian (CHO) cells; experiment: in vitro cytotoxicity, MTT-assay; assay type: cell-based; details: for IC50: Cricetulus griseus, CHO; for SI (selectivity index): IC50 CHO/IC50 NF54
Experimental: An antiplasmodium assay was performed on this set of 18 novel quinoline-piperidine analogues to establish their potential as antimalarial agents. […] All compounds were screened for in vitro antiplasmodium activity against a CQ-sensitive strain of P. falciparum (NF54). Subsequently, compounds showing promising antiplasmodium activity were also tested against a CQ-resistant strain of P. falciparum (K1) and analysed for in vitro cytotoxicity against a mammalian cell line, Chinese hamster ovarian (CHO) cells, using the 3-(4,5-dimethylthiazol-2-yl)-2,5-diphenyltetrazoliumbromide (MTT)-assay. Continuous in vitro cultures of asexual erythrocyte stages of P. falciparum were maintained using a modified method of Trager and Jensen, and quantitative assessment of antiplasmodium activity in vitro was determined via the parasite lactate dehydrogenase assay using a modified method described by Makler. The test samples were tested in triplicate on one occasion. The MTT-assay was used as a colorimetric assay for cellular growth and survival, and compares well with other available assays. The tetrazolium salt MTT was used to measure all growth and chemosensitivity. Again, samples were tested in triplicate on one occasion. Chloroquine was used as reference compound in both antiplasmodium screenings, while emetine was used as known antiprotozoal agent in the MTT-assay.
The same stock solutions prepared for antiplasmodium testing were used for cytotoxicity testing. Test compounds were stored at −20 °C until use. Dilutions were prepared on the day of the experiment. Emetine was used as the reference drug in all experiments. The initial concentration of emetine was 100 μg/ml, which was serially diluted in complete medium with 10-fold dilutions to give 6 concentrations, the lowest being 0.001 μg/ml. The same dilution technique was applied to all the test samples. The highest concentration of solvent to which the cells were exposed to had no measurable effect on the cell viability (data not shown). The 50% inhibitory concentration (IC50) values were obtained from full dose-response curves, using a non-linear dose-response curve fitting analysis via GraphPad Prism v.4 software.

[2] = tested on: CQ-sensitive strain of P. falciparum (NF54); experiment: in vitro antiplasmodium assay (parasite lactate dehydrogenase), CQ-sensitive strain; assay type: cell-based, Plasmodium falciparum; details: for IC50: Plasmodium falciparum
[3] = tested on: CQ-resistant strain of P. falciparum (K1); experiment: in vitro antiplasmodium assay (parasite lactate dehydrogenase), CQ-resistant strain; assay type: cell-based, Plasmodium falciparum; details: for IC50: Plasmodium falciparum; for activity lowered by omitting the 7-chlorine atom: CQ-resistant strain, versus 7-chloro analogues
[4] = cytotoxicity, CHO cells, MTT, mean ± SD
[5] = CQ-sensitive P. falciparum NF54, mean ± SD, read-out: NF54 IC50
[6] = CQ-resistant P. falciparum K1, mean ± SD, read-out: K1 IC50

**Q.** Which results are given for `C=CCN1C[C@@H](OCc2ccccc2)[C@@H](CNc2ccnc3cc(Cl)ccc23)C(C)(C)C1` (relative stereo) [Compound 16a, N-[(cis-1-Allyl-5-benzyloxy-3,3-dimethylpiperidin-4-yl)methyl]-7-chloroquinolin-4-amine]?
**A.** IC50 [1, 4]: 122000 ± 41400 nM; SI (selectivity index) [1]: 10,149; IC50 [2, 5]: 12 ± 1 nM; IC50 [3, 6]: 26 ± 5.7 nM

**Q.** Which IC50 [1, 4] does the source give for `C=CCN1C[C@@H](OCc2ccccc2)[C@@H](CNCc2ccnc3ccccc23)C(C)(C)C1` (relative stereo) [Compound 17a, N-[(cis-1-Allyl-5-benzyloxy-3,3-dimethylpiperidin-4-yl)methyl]-1-(quinolin-4-yl)methanamine] here?
**A.** Its IC50 is 139000 ± 14100 nM.

**Q.** What about the “SI (selectivity index)” value [1] of the same compound?
**A.** The value was 59.

**Q.** And the IC50 [2, 5]?
**A.** Its IC50 is 2370 ± 1050 nM.

**Q.** What about the IC50 [3, 6] of the same compound?
**A.** Its IC50 is 3660 ± 430 nM.

**Q.** Which IC50 [1, 4] does the source give for `C=CCN1C[C@@H](OCc2ccccc2)[C@@H](CNCc2ccc3ccccc3n2)C(C)(C)C1` (relative stereo) [Compound 17c, N-[(cis-1-Allyl-5-benzyloxy-3,3-dimethylpiperidin-4-yl)methyl]-1-(quinolin-2-yl)methanamine] here?
**A.** Its IC50 is 211000 ± 31400 nM.

**Q.** And the “SI (selectivity index)” value [1]?
**A.** The value was 134.

**Q.** What about the IC50 [2, 5] of the same compound?
**A.** Its IC50 is 1570 ± 170 nM.

**Q.** And the IC50 [3, 6]?
**A.** Its IC50 is 2820 ± 140 nM.

**Q.** `C=CCN1C[C@@H](OCc2ccccc2)[C@@H](CNCc2cc3ccccc3nc2Cl)C(C)(C)C1` (relative stereo) [Compound 17f, N-[(cis-1-Allyl-5-benzyloxy-3,3-dimethylpiperidin-4-yl)methyl]-1-(2-chloroquinolin-3-yl)methanamine] was tested. Which IC50 [1, 4] did it give?
**A.** The IC50 was 199000 ± 23300 nM.

**Q.** And the “SI (selectivity index)” value [1]?
**A.** Its value is 156.

**Q.** And the IC50 [2, 5]?
**A.** The IC50 was 1280 ± 330 nM.

**Q.** What about the IC50 [3, 6] of the same compound?
**A.** Its IC50 is 1950 ± 78 nM.

**Q.** Which IC50 [2, 5] does the source give for `C=CCN1C[C@@H](OC)[C@@H](CNCc2ccnc3ccccc23)C(C)(C)C1` (relative stereo) [Compound 17h, N-[(cis-1-Allyl-5-methoxy-3,3-dimethylpiperidin-4-yl)methyl]-1-(quinolin-4-yl)methanamine] here?
**A.** Its IC50 is 18000 ± 2440 nM.

**Q.** For `CCN(CC)CCCC(C)Nc1ccnc2cc(Cl)ccc12` (centres unmarked) [Chloroquine, reference compound], which IC50 ([2]; NF54, read-out: IC50 (NF54), footnote reference value, subset c) is on record?
**A.** Its IC50 is 11.3 nM.

**Q.** What about the IC50 ([2]; NF54, read-out: IC50 (NF54), footnote reference value, subset d) of the same compound?
**A.** Its IC50 is 9.5 nM.

**Q.** What about the IC50 ([2]; NF54, read-out: IC50 (NF54), footnote reference value, subset e) of the same compound?
**A.** Its IC50 is 20 nM.

**Q.** What about the IC50 ([2]; NF54, read-out: NF54 IC50, reference value for compound subset c) of the same compound?
**A.** The IC50 was 11 ± 1 nM.

**Q.** What about the IC50 ([2]; NF54, read-out: NF54 IC50, reference value for compound subset d) of the same compound?
**A.** Its IC50 is 10 nM.

**Q.** What about the IC50 ([2]; NF54, read-out: NF54 IC50, reference value for compound subset e) of the same compound?
**A.** The IC50 was 20 nM.

**Q.** And the IC50 ([3]; K1, read-out: IC50 (K1))?
**A.** Its IC50 is 166 nM.

**Q.** What does the source list for `COc1ccc(CNCC2CC3(c4ccccc4)CCN2C3)cc1` (centres unmarked) [Compound 7, 2-[N-(4-methoxybenzyl)aminomethyl]-4-phenyl-1-azabicyclo[2.2.1]heptane]?
**A.** IC50 [2, 5]: 1550 ± 130 nM; antiplasmodium activity (in words) ([2]; in vitro, strain not given): moderate antiplasmodium activity

**Q.** Which results are given for `Clc1ccc2c(NCC3CC4(c5ccccc5)CCN3C4)ccnc2c1` (centres unmarked) [Compound 11a, 7-Chloro-N-[(4-phenyl-1-azabicyclo[2.2.1]heptan-2-yl)methyl]quinolin-4-amine]?
**A.** IC50 [1, 4]: 26000 ± 2900 nM; SI (selectivity index) [1]: 1266; IC50 [2, 5]: 21 ± 5 nM; IC50 [3, 6]: 33 ± 6.2 nM

**Q.** How did the IC50 [1, 4] turn out when `c1ccc(C23CCN(C2)C(CNc2ccnc4ccccc24)C3)cc1` (centres unmarked) [Compound 11b, N-[(4-Phenyl-1-azabicyclo[2.2.1]heptan-2-yl)methyl]quinolin-4-amine] was run?
**A.** The IC50 was 11200 ± 2100 nM.

**Q.** And the “SI (selectivity index)” value [1]?
**A.** Its value is 250.

**Q.** And the IC50 [2, 5]?
**A.** Its IC50 is 45 ± 7 nM.

**Q.** And the “activity lowered by omitting the 7-chlorine atom” value [3]?
**A.** The value was 2 to 3 times.

**Q.** What about the IC50 [3, 6] of the same compound?
**A.** The IC50 was 69 ± 11.3 nM.

**Q.** `c1ccc(C23CCN(C2)C(CNCc2ccnc4ccccc24)C3)cc1` (centres unmarked) [Compound 12a, N-[(4-Phenyl-1-azabicyclo[2.2.1]heptan-2-yl)methyl]-1-(quinolin-4-yl)methanamine] was tested. Which IC50 [2, 5] did it give?
**A.** Its IC50 is 6770 ± 250 nM.

**Q.** With `c1ccc(C23CCN(C2)C(CNCc2cnc4ccccc4c2)C3)cc1` (centres unmarked) [Compound 12b, N-[(4-Phenyl-1-azabicyclo[2.2.1]heptan-2-yl)methyl]-1-(quinolin-3-yl)methanamine] as the compound, how does the IC50 [2, 5] read?
**A.** The IC50 was 4070 ± 740 nM.

**Q.** Which IC50 [2, 5] does the source give for `c1ccc(C23CCN(C2)C(CNCc2ccc4ccccc4n2)C3)cc1` (centres unmarked) [Compound 12c, N-[(4-Phenyl-1-azabicyclo[2.2.1]heptan-2-yl)methyl]-1-(quinolin-2-yl)methanamine] here?
**A.** The IC50 was 1270 ± 40 nM.

**Q.** What does the source list for `Oc1cccc2ccc(CNCC3CC4(c5ccccc5)CCN3C4)nc12` (centres unmarked) [Compound 12d, 2-{N-[(4-Phenyl-1-azabicyclo[2.2.1]heptan-2-yl)methyl]aminomethyl}quinolin-8-ol]?
**A.** IC50 [1, 4]: 103000 ± 19700 nM; SI (selectivity index) [1]: 142; IC50 [2, 5]: 720 ± 30 nM; IC50 [3, 6]: 4640 ± 130 nM

**Q.** For `Clc1nc2ccccc2cc1CNCC1CC2(c3ccccc3)CCN1C2` (centres unmarked) [Compound 12e, N-[(4-Phenyl-1-azabicyclo[2.2.1]heptan-2-yl)methyl]-1-(2-chloroquinolin-3-yl)methanamine], which IC50 [2, 5] is on record?
**A.** Its IC50 is 3600 ± 310 nM.

**Q.** For `C=CCN1CCC(CNc2ccnc3cc(Cl)ccc23)C(C)(C)C1` (centres unmarked) [Compound 16b, N-[(1-Allyl-3,3-dimethylpiperidin-4-yl)methyl]-7-chloroquinolin-4-amine], which IC50 [1, 4] is on record?
**A.** The IC50 was 29900 ± 1200 nM.

**Q.** And the “SI (selectivity index)” value [1]?
**A.** The value was 1991.

**Q.** What about the IC50 [2, 5] of the same compound?
**A.** The IC50 was 15 ± 1.7 nM.

**Q.** And the IC50 [3, 6]?
**A.** The IC50 was 25 ± 8.9 nM.

**Q.** With `C=CCN1CCC(CNc2ccnc3ccccc23)C(C)(C)C1` (centres unmarked) [Compound 16c, N-[(1-Allyl-3,3-dimethylpiperidin-4-yl)methyl]quinolin-4-amine] as the compound, how does the IC50 [1, 4] read?
**A.** Its IC50 is 27000 ± 3200 nM.

**Q.** What about the “SI (selectivity index)” value [1] of the same compound?
**A.** The value was 114.

**Q.** And the IC50 [2, 5]?
**A.** The IC50 was 236 ± 32 nM.

**Q.** And the “activity lowered by omitting the 7-chlorine atom” value [3]?
**A.** Its value is 2 to 3 times.

**Q.** And the IC50 [3, 6]?
**A.** The IC50 was 68.5 ± 7.8 nM.

**Q.** With `C=CCN1CCC(CNCc2ccnc3ccccc23)C(C)(C)C1` (centres unmarked) [Compound 17b, N-[(1-Allyl-3,3-dimethylpiperidin-4-yl)methyl]-1-(quinolin-4-yl)methanamine] as the compound, how does the IC50 [2, 5] read?
**A.** The IC50 was 4940 ± 1180 nM.

**Q.** Which IC50 [2, 5] does the source give for `C=CCN1CCC(CNCc2ccc3ccccc3n2)C(C)(C)C1` (centres unmarked) [Compound 17d, N-[(1-Allyl-3,3-dimethylpiperidin-4-yl)methyl]-1-(quinolin-2-yl)methanamine] here?
**A.** The IC50 was 3660 ± 820 nM.

**Q.** With `C=CCN1CCC(CNCc2ccc3cccc(O)c3n2)C(C)(C)C1` (centres unmarked) [Compound 17e, 2-{N-[(1-Allyl-3,3-dimethylpiperidin-4-yl)methyl]aminomethyl}quinolin-8-ol] as the compound, how does the IC50 [2, 5] read?
**A.** Its IC50 is 2890 ± 1060 nM.

**Q.** Which IC50 [2, 5] does the source give for `C=CCN1CCC(CNCc2cc3ccccc3nc2Cl)C(C)(C)C1` (centres unmarked) [Compound 17g, N-[(1-Allyl-3,3-dimethylpiperidin-4-yl)methyl]-1-(2-chloroquinolin-3-yl)methanamine] here?
**A.** The IC50 was 7750 ± 1440 nM.

**Q.** Which results are given for `CC[C@H]1CN2CCc3cc(OC)c(OC)cc3[C@@H]2C[C@@H]1C[C@H]1NCCc2cc(OC)c(OC)cc21` [Emetine, reference compound]?
**A.** IC50 ([1]; reference value for compound subset c): 40 ± 10 nM; IC50 ([1]; reference value for compound subset d): 140 nM; IC50 ([1]; reference value for compound subset e): 30 nM
